Measurements reported in the supplement of paper PMC11208160.

Assay: recombinant UMI read abundance after kanamycin selection (control-corrected) (log10(CPM+1)); higher = more efficient recombination; extreme values may be limits of the assay; sequences stand for … in AGTGCAGAGAAAATCGGCCAGTTTTCTCTGCCTGCAGTCCGCATGCCGTGGGACCCCTTGGGTTCTAACCTGTTGCCTAGATTTATGCAGCGGACTGCCTTTCTCCCAAAGTGATAAACCGG…AGGTTGGTTTCACT; site = the 11-nt donor
Summary of the method: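 The measure is log10(CPM+1) for recombinant UMIs. These were PCR-amplified across the donor–target junction and sequenced after Escherichia coli carrying a donor and donor-binding-loop pair library and a target plasmid with T7-inducible IS621 bridge recombinase was plated on IPTG (0.07 mM) plus kanamycin or unselected. CPM were averaged over two replicates and scaled by control-derived factors.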
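Also: IS621 bridge recombinase in Escherichia coli cells against a fixed T5 target plasmid.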

Sequence	recombinant UMI read abundance (log10)
GTTGTCGCATGGACCGGTTTTCCCGGTAATCCGTATTTGCG (site GTAGTCGCTCG)	0.0153
GTTGTCGCATGGACCGGTTTTCCCGGTAATCCGTATTTGCG (site GTCGTCGCTCG)	0.00886
GTTGTCGCATGGACCGGTTTTCCCGGTAATCCGTATTTGCG (site GTGGTCGCTCG)	0.009
GTTGTCGCATGGACCGGTTTTCCCGGTAATCCGTATTTGCG (site GTTGTCGCTCG)	0.974
GTTGTTACATGGACCGGTTTTCCCGGTAATCCGTATTTGGT (site GTTGTTACTAC)	1.07
GTTGTTACATGGACCGGTTTTCCCGGTAATCCGTATTTGGT (site GTTGTTCCTAC)	0
GTTGTTACATGGACCGGTTTTCCCGGTAATCCGTATTTGGT (site GTTGTTGCTAC)	0.0188
GTTGTTACATGGACCGGTTTTCCCGGTAATCCGTATTTGGT (site GTTGTTTCTAC)	0
GTTGTTCCATGGACCGGTTTTCCCGGTAATCCGTATTTGAT (site GTTGTTCCTAA)	0.0147
GTTGTTCCATGGACCGGTTTTCCCGGTAATCCGTATTTGAT (site GTTGTTCCTAC)	0.00806
GTTGTTCCATGGACCGGTTTTCCCGGTAATCCGTATTTGAT (site GTTGTTCCTAG)	0
GTTGTTCCATGGACCGGTTTTCCCGGTAATCCGTATTTGAT (site GTTGTTCCTAT)	0.00518
GTTGTTCCATGGACCGGTTTTCCCGGTAATCCGTATTTGCT (site GTTGTTCCTAA)	0.0109
GTTGTTCCATGGACCGGTTTTCCCGGTAATCCGTATTTGCT (site GTTGTTCCTAC)	0.0126
GTTGTTCCATGGACCGGTTTTCCCGGTAATCCGTATTTGCT (site GTTGTTCCTAG)	0
GTTGTTCCATGGACCGGTTTTCCCGGTAATCCGTATTTGCT (site GTTGTTCCTAT)	0.00476

Sequence	recombinant UMI read abundance (log10)
GTTGTTCCATGGACCGGTTTTCCCGGTAATCCGTATTTGGC (site GTTGTTCCTAC)	0.00298
GTTGTTCCATGGACCGGTTTTCCCGGTAATCCGTATTTGGC (site GTTGTTCCTCC)	0.0108
GTTGTTCCATGGACCGGTTTTCCCGGTAATCCGTATTTGGC (site GTTGTTCCTGC)	0
GTTGTTCCATGGACCGGTTTTCCCGGTAATCCGTATTTGGC (site GTTGTTCCTTC)	0.0051
GTTGTTCCATGGACCGGTTTTCCCGGTAATCCGTATTTGGG (site GTTGTTCCTAC)	0.0139
GTTGTTCCATGGACCGGTTTTCCCGGTAATCCGTATTTGGG (site GTTGTTCCTCC)	0.0029
GTTGTTCCATGGACCGGTTTTCCCGGTAATCCGTATTTGGG (site GTTGTTCCTGC)	0
GTTGTTCCATGGACCGGTTTTCCCGGTAATCCGTATTTGGG (site GTTGTTCCTTC)	0.00718
GTTTAACCATGGACCGGTTTTCCCGGTAATCCGTATTTGGT (site GTTTAACCTAC)	0.00474
GTTTACCCATGGACCGGTTTTCCCGGTAATCCGTATTTGGG (site GTTTACCCTCC)	0.00501
GTTTATTCATGGACCGGTTTTCCCGGTAATCCGTATTTGCT (site GTTTATTCTAG)	1.99
GTTTATTCATGGACCGGTTTTCCCGGTAATCCGTATTTGGT (site GTTTATTCTAC)	1.61
GTTTCGGCATGGACCGGTTTTCCCGGTAATCCGTATTTGGT (site GTTTCGGCTAC)	0.282
GTTTGCCCATGGACCGGTTTTCCCGGTAATCCGTATTTGAT (site GATTGCCCTAT)	0.00963
GTTTGCCCATGGACCGGTTTTCCCGGTAATCCGTATTTGAT (site GCTTGCCCTAT)	0.0198
GTTTGCCCATGGACCGGTTTTCCCGGTAATCCGTATTTGAT (site GGTTGCCCTAT)	0.018
